Results reported in the NIST ThermoML archive (doi:10.1007/s10765-010-0737-5).

Test: xn = mol fraction of the nth substance listed
Settings: Liquid; for viscosity: 101 kPa, Capillary tube (Ostwald / Ubbelohde) method; for mass density: 101.3 kPa

CC(C)CCl [1-chloro-2-methylpropane] + CC(C)OC(C)C
Settings | mass density [kg/m3] | viscosity [mPa·s]
283.15 K, x1 = 0.0549 | 740.509 | 0.3695
283.15 K, x1 = 0.091 | 745.071 | 0.3728
283.15 K, x1 = 0.1977 | 758.96 | 0.3837
283.15 K, x1 = 0.2934 | 772.077 | 0.3947
283.15 K, x1 = 0.3911 | 785.941 | 0.4069
283.15 K, x1 = 0.5137 | 804.21 | 0.424
283.15 K, x1 = 0.6034 | 818.258 | 0.438
283.15 K, x1 = 0.6769 | 830.206 | 0.4502
283.15 K, x1 = 0.8059 | 852.473 | 0.4739
283.15 K, x1 = 0.9111 | 871.773 | 0.4955
283.15 K, x1 = 0.9646 | 881.981 | 0.5074
283.15 K, x1 = 1 | 888.845 | 0.5155
288.15 K, x1 = 0.0549 | 735.346 | 0.3532
288.15 K, x1 = 0.091 | 739.888 | 0.3565
288.15 K, x1 = 0.1977 | 753.737 | 0.3666
288.15 K, x1 = 0.2934 | 766.807 | 0.3765
288.15 K, x1 = 0.3911 | 780.617 | 0.3876
288.15 K, x1 = 0.5137 | 798.831 | 0.403
288.15 K, x1 = 0.6034 | 812.821 | 0.4152
288.15 K, x1 = 0.6769 | 824.734 | 0.4261
288.15 K, x1 = 0.8059 | 846.936 | 0.447
288.15 K, x1 = 0.9111 | 866.179 | 0.4658
288.15 K, x1 = 0.9646 | 876.368 | 0.4761
288.15 K, x1 = 1 | 883.211 | 0.4833
293.15 K, x1 = 0.0549 | 730.142 | 0.3383
293.15 K, x1 = 0.091 | 734.678 | 0.3412
293.15 K, x1 = 0.1977 | 748.467 | 0.3504
293.15 K, x1 = 0.2934 | 761.481 | 0.3595
293.15 K, x1 = 0.3911 | 775.245 | 0.3694
293.15 K, x1 = 0.5137 | 793.406 | 0.3831
293.15 K, x1 = 0.6034 | 807.35 | 0.3941
293.15 K, x1 = 0.6769 | 819.228 | 0.4038
293.15 K, x1 = 0.8059 | 841.356 | 0.4222
293.15 K, x1 = 0.9111 | 860.549 | 0.4386
293.15 K, x1 = 0.9646 | 870.717 | 0.4478
293.15 K, x1 = 1 | 877.539 | 0.454
298.15 K, x1 = 0.0549 | 724.887 | 0.3219
298.15 K, x1 = 0.091 | 729.395 | 0.3247
298.15 K, x1 = 0.1977 | 743.114 | 0.3337
298.15 K, x1 = 0.2934 | 756.06 | 0.3423
298.15 K, x1 = 0.3911 | 769.763 | 0.3515
298.15 K, x1 = 0.5137 | 787.825 | 0.3644
298.15 K, x1 = 0.6034 | 801.699 | 0.3747
298.15 K, x1 = 0.6769 | 813.519 | 0.3834
298.15 K, x1 = 0.8059 | 835.53 | 0.4003
298.15 K, x1 = 0.9111 | 854.603 | 0.4156
298.15 K, x1 = 0.9646 | 864.749 | 0.4238
298.15 K, x1 = 1 | 871.533 | 0.4296
303.15 K, x1 = 0.0549 | 719.603 | 0.3043
303.15 K, x1 = 0.091 | 724.11 | 0.3069
303.15 K, x1 = 0.1977 | 737.798 | 0.316
303.15 K, x1 = 0.2934 | 750.738 | 0.3246
303.15 K, x1 = 0.3911 | 764.421 | 0.3341
303.15 K, x1 = 0.5137 | 782.446 | 0.3469
303.15 K, x1 = 0.6034 | 796.305 | 0.357
303.15 K, x1 = 0.6769 | 808.11 | 0.3659
303.15 K, x1 = 0.8059 | 830.111 | 0.3826
303.15 K, x1 = 0.9111 | 849.196 | 0.3975
303.15 K, x1 = 0.9646 | 859.307 | 0.4058
303.15 K, x1 = 1 | 866.096 | 0.4112
308.15 K, x1 = 0.0549 | 714.28 | 0.2896
308.15 K, x1 = 0.091 | 718.759 | 0.2926
308.15 K, x1 = 0.1977 | 732.397 | 0.3012
308.15 K, x1 = 0.2934 | 745.3 | 0.3094
308.15 K, x1 = 0.3911 | 758.935 | 0.3184
308.15 K, x1 = 0.5137 | 776.901 | 0.3308
308.15 K, x1 = 0.6034 | 790.719 | 0.3404
308.15 K, x1 = 0.6769 | 802.492 | 0.3489
308.15 K, x1 = 0.8059 | 824.422 | 0.3647
308.15 K, x1 = 0.9111 | 843.468 | 0.3791
308.15 K, x1 = 0.9646 | 853.542 | 0.3867
308.15 K, x1 = 1 | 860.319 | 0.3921
313.15 K, x1 = 0.0549 | 708.887 | 0.2761
313.15 K, x1 = 0.091 | 713.334 | 0.2788
313.15 K, x1 = 0.1977 | 726.882 | 0.287
313.15 K, x1 = 0.2934 | 739.693 | 0.2948
313.15 K, x1 = 0.3911 | 753.227 | 0.3033
313.15 K, x1 = 0.5137 | 771.077 | 0.315
313.15 K, x1 = 0.6034 | 784.802 | 0.324
313.15 K, x1 = 0.6769 | 796.487 | 0.3322
313.15 K, x1 = 0.8059 | 818.264 | 0.3472
313.15 K, x1 = 0.9111 | 837.168 | 0.3607
313.15 K, x1 = 0.9646 | 847.176 | 0.3677
313.15 K, x1 = 1 | 853.902 | 0.3726

CCCCCl [1-chlorobutane] + CC(C)OC(C)C
Settings | mass density [kg/m3] | viscosity [mPa·s]
283.15 K, x1 = 0.0466 | 740.095 | 0.3698
283.15 K, x1 = 0.0991 | 747.139 | 0.3755
283.15 K, x1 = 0.1918 | 759.833 | 0.3863
283.15 K, x1 = 0.3234 | 778.726 | 0.4028
283.15 K, x1 = 0.4199 | 793.339 | 0.4153
283.15 K, x1 = 0.516 | 808.586 | 0.4283
283.15 K, x1 = 0.623 | 826.434 | 0.4433
283.15 K, x1 = 0.7154 | 842.63 | 0.4568
283.15 K, x1 = 0.8157 | 861.003 | 0.4715
283.15 K, x1 = 0.9098 | 879.099 | 0.4857
283.15 K, x1 = 0.9559 | 888.28 | 0.4927
283.15 K, x1 = 1 | 897.339 | 0.4993
288.15 K, x1 = 0.0466 | 734.99 | 0.3535
288.15 K, x1 = 0.0991 | 741.966 | 0.359
288.15 K, x1 = 0.1918 | 754.629 | 0.3689
288.15 K, x1 = 0.3234 | 773.471 | 0.3838
288.15 K, x1 = 0.4199 | 788.055 | 0.3951
288.15 K, x1 = 0.516 | 803.274 | 0.4068
288.15 K, x1 = 0.623 | 821.073 | 0.4202
288.15 K, x1 = 0.7154 | 837.246 | 0.4321
288.15 K, x1 = 0.8157 | 855.588 | 0.4453
288.15 K, x1 = 0.9098 | 873.635 | 0.4579
288.15 K, x1 = 0.9559 | 882.81 | 0.4641
288.15 K, x1 = 1 | 891.855 | 0.4701
293.15 K, x1 = 0.0466 | 729.792 | 0.3385
293.15 K, x1 = 0.0991 | 736.75 | 0.3435
293.15 K, x1 = 0.1918 | 749.383 | 0.3528
293.15 K, x1 = 0.3234 | 768.192 | 0.3662
293.15 K, x1 = 0.4199 | 782.731 | 0.3763
293.15 K, x1 = 0.516 | 797.924 | 0.3868
293.15 K, x1 = 0.623 | 815.68 | 0.3988
293.15 K, x1 = 0.7154 | 831.821 | 0.4094
293.15 K, x1 = 0.8157 | 850.133 | 0.4212
293.15 K, x1 = 0.9098 | 868.142 | 0.4323
293.15 K, x1 = 0.9559 | 877.303 | 0.4379
293.15 K, x1 = 1 | 886.335 | 0.4433
298.15 K, x1 = 0.0466 | 724.56 | 0.3222
298.15 K, x1 = 0.0991 | 731.492 | 0.3273
298.15 K, x1 = 0.1918 | 744.091 | 0.336
298.15 K, x1 = 0.3234 | 762.854 | 0.3487
298.15 K, x1 = 0.4199 | 777.351 | 0.3583
298.15 K, x1 = 0.516 | 792.506 | 0.3682
298.15 K, x1 = 0.623 | 810.177 | 0.3793
298.15 K, x1 = 0.7154 | 826.321 | 0.3893
298.15 K, x1 = 0.8157 | 844.587 | 0.4003
298.15 K, x1 = 0.9098 | 862.556 | 0.411
298.15 K, x1 = 0.9559 | 871.691 | 0.4162
298.15 K, x1 = 1 | 880.705 | 0.4214
303.15 K, x1 = 0.0466 | 719.283 | 0.3048
303.15 K, x1 = 0.0991 | 726.204 | 0.3098
303.15 K, x1 = 0.1918 | 738.777 | 0.3188
303.15 K, x1 = 0.3234 | 757.526 | 0.3318
303.15 K, x1 = 0.4199 | 771.984 | 0.3415
303.15 K, x1 = 0.516 | 787.119 | 0.3514
303.15 K, x1 = 0.623 | 804.761 | 0.3628
303.15 K, x1 = 0.7154 | 820.882 | 0.3726
303.15 K, x1 = 0.8157 | 839.124 | 0.3837
303.15 K, x1 = 0.9098 | 857.076 | 0.3944
303.15 K, x1 = 0.9559 | 866.204 | 0.3998
303.15 K, x1 = 1 | 875.204 | 0.405
308.15 K, x1 = 0.0466 | 713.967 | 0.2903
308.15 K, x1 = 0.0991 | 720.87 | 0.2953
308.15 K, x1 = 0.1918 | 733.414 | 0.3043
308.15 K, x1 = 0.3234 | 752.126 | 0.317
308.15 K, x1 = 0.4199 | 766.553 | 0.3266
308.15 K, x1 = 0.516 | 781.656 | 0.3362
308.15 K, x1 = 0.623 | 799.266 | 0.3472
308.15 K, x1 = 0.7154 | 815.358 | 0.3569
308.15 K, x1 = 0.8157 | 833.567 | 0.3677
308.15 K, x1 = 0.9098 | 851.486 | 0.3781
308.15 K, x1 = 0.9559 | 860.595 | 0.3833
308.15 K, x1 = 1 | 869.585 | 0.3885
313.15 K, x1 = 0.0466 | 708.604 | 0.2765
313.15 K, x1 = 0.0991 | 715.486 | 0.2811
313.15 K, x1 = 0.1918 | 728.002 | 0.2891
313.15 K, x1 = 0.3234 | 746.649 | 0.3005
313.15 K, x1 = 0.4199 | 761.063 | 0.309
313.15 K, x1 = 0.516 | 776.136 | 0.3175
313.15 K, x1 = 0.623 | 793.704 | 0.3274
313.15 K, x1 = 0.7154 | 809.769 | 0.3359
313.15 K, x1 = 0.8157 | 827.935 | 0.3456
313.15 K, x1 = 0.9098 | 845.816 | 0.3548
313.15 K, x1 = 0.9559 | 854.913 | 0.3594
313.15 K, x1 = 1 | 863.882 | 0.3642
